# Measured values as given in ChEMBL document CHEMBL1139647, “Synthesis and biological characterization of [3H] (2-amino-4,5,6,7-tetrahydrobenzo[b]thiophen-3-yl)-(4-chlorophenyl)-methanone, the first radiolabelled adenosine A1 allosteric enhancer” (Bioorg Med Chem Lett, 2006).
# Activity calls are given as the source filed them. The calls are words filed in the database; no cut-off is given here.
# Assays:
# [1] = target: T1, Adenosine receptor A1 (Homo sapiens) (UniProt P30542); assay: Activity measured by decrease in cAMP content employing CHO cells expressing human A1 receptor at 10 uM; type: functional, cell-based; parameters: scale not given: the % may be the effect or the level left
# T1 sequence (whole entry): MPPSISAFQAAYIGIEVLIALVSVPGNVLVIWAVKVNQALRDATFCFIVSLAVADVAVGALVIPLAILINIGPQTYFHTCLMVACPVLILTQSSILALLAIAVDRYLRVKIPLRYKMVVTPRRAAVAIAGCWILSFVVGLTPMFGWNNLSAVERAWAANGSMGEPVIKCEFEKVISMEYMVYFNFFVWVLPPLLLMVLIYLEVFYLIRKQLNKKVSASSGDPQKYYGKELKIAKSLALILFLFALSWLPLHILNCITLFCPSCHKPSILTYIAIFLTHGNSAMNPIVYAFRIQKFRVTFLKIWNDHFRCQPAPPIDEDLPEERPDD
# [2] = target: T1, Adenosine receptor A1 (Homo sapiens); assay: Increase in agonist-specific binding of [3H]CCPA to human adenosine A1 receptor in CHO membranes; type: functional, cell membranes
# [3] = target: T2, Adenosine receptor A1 (Rattus norvegicus) (UniProt P25099); assay: Increase in agonist-specific binding of [3H]CCPA to adenosine A1 receptor in rat cortex; type: functional
# T2 sequence (whole entry): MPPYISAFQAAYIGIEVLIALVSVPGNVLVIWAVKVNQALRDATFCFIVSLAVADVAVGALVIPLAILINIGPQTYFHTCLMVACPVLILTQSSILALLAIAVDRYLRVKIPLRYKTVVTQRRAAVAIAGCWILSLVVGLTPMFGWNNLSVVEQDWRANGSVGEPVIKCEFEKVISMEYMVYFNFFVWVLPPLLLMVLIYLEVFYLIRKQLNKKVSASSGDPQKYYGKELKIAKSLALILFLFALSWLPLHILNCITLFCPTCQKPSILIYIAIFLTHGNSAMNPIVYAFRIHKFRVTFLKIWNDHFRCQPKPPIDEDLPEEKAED
# [4] = target: T1, Adenosine receptor A1 (Homo sapiens); assay: Increase in agonist-specific binding of [3H]CCPA to human adenosine A1 receptor in human brain membranes; type: functional, cell membranes; conditions: Membrane
# [5] = target: T1, Adenosine receptor A1 (Homo sapiens); assay: Increase in Bmax for binding of [3H]CCPA to human adenosine A1 receptor in CHO membranes; type: cell membranes
# [6] = target: T2, Adenosine receptor A1 (Rattus norvegicus); assay: Increase in Bmax for binding of [3H]CCPA to adenosine A1 receptor in rat cortex
# [7] = target: T1, Adenosine receptor A1 (Homo sapiens); assay: Increase in Bmax for binding of [3H]CCPA to human adenosine A1 receptor in human brain membrane; type: cell membranes
# [8] = target: Adenosine receptor A2a (Homo sapiens) (UniProt P29274); assay: Increase in binding of [3H]CGS 21680 to human adenosine A2A receptor in CHO membranes; type: cell membranes
# Chain of Adenosine receptor A2a (Homo sapiens) (P29274 whole entry): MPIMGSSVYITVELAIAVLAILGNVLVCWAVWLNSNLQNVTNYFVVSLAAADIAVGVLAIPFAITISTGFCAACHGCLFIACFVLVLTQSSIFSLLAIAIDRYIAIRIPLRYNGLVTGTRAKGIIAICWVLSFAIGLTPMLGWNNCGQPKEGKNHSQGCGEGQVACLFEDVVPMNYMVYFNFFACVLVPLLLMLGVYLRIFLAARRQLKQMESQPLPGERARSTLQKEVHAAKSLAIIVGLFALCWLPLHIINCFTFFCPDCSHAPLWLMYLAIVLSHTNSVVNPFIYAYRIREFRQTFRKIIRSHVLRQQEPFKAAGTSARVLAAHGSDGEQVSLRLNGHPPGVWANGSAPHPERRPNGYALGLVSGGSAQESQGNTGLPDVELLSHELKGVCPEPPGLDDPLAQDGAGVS
# [9] = target: T3, Adenosine receptor A3 (Homo sapiens) (UniProt P0DMS8); assay: Increase in binding of [125I]AB-MECA to human adenosine A3 receptor in CHO membranes; type: cell membranes
# T3 sequence (whole entry): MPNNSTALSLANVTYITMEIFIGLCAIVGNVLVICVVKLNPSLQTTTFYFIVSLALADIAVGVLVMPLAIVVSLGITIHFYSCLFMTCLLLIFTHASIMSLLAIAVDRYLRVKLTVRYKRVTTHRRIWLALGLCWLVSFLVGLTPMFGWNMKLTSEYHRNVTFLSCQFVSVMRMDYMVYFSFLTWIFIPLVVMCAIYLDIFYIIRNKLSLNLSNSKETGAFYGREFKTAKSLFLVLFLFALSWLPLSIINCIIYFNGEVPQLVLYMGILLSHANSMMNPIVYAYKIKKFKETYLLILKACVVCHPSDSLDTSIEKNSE
# [10] = target: T1, Adenosine receptor A1 (Homo sapiens); assay: Binding density to adenosine A1 receptor in CHO membranes; type: cell membranes; conditions: tested as the 3H-labelled form
smiles,measurement,setting,value
Nc1sc2c(c1C(=O)c1ccc(Cl)cc1)CCCC2,Activity,[1],55%
same,Activity,[2],51%
same,Activity,[3],15%
same,Activity,[4],22%
same,Activity,[5],65%
same,Activity,[6],15%
same,Activity,[7],23%
same,Activity,[8],inactive
same,Activity,[9],inactive
same,Bmax,[10],76.5 pmol/mg
